Columns and labels:
[1] = tested on: Human platelet cyclic AMP phosphodiesterase; test: Cyclic AMP phosphodiesterase assay; assay type: biochemical; settings: 1 μM cyclic AMP as substrate; human platelet enzyme; read-out: IC50 value, inhibition of cyclic AMP phosphodiesterase
Method: (§1) Cyclic AMP phosphodiesterase activity and inhibition of platelet aggregation were determined as follows.
Cyclic AMP phosphodiesterase assay
The inhibition of cyclic AMP phosphodiesterase activity by the subject compounds was assayed by the method of Filburn and Karn, Analyt. Biochem., 52: 505-516 (1973), using 1 μM cyclic AMP as the substrate. Human platelet cyclic AMP phosphodiesterase was obtained from human donors. Platelets were isolated and washed by centrifugation, the membranes ruptured by a sequential freeze-thaw procedure and hypotonic lysis and the soluble enzyme isolated by high speed centrifugation. The enzyme was stored in aliquots at -20° C.

human platelets = test: Platelet aggregation (turbidimetric); assay type: cell-based; settings: platelet rich plasma
Method: as §1
Blood was collected into evacuated tubes containing sodium citrate (30 mM). Platelet rich plasma was collected after centrifugation. Aggregation was followed by a turbidimetric procedure described by G. V. R. Born, J. Physiol., Lond., 162: 67P-68P (1962).

Mongrel dogs = test: Inotropic activity in anesthetized mongrel dogs; assay type: in vivo; settings: intravenous, anesthetized dog
Method: The inotropic activity of these compounds was determined as follows: Mongrel dogs were anesthetized i.v. with 35 mg/Kg sodium pentobarbital and supplemented as needed. Blood pressure was measured with a Statham pressure transducer via a cannula inserted from a femoral artery into the abdominal aorta. Heart rate was recorded by a cardiotachometer from a lead II electrocardiogram. Right ventricular contractile force was recorded from a Walton-Brodie strain gauge sutured to the right ventricle following a midsternal thoracotomy. A Harvard respirator was used to ventilate the dogs with room air through an endotracheal tube. The dog was bilaterally vagotomized. Following a midline laparotomy, a cannula was sutured into the duodenum for intraduodenal administration of test compound. A femoral vein was cannulated for administration of isoproterenol. All data were recorded on a Beckman R611 Dynograph.
To assess the responsiveness of each dog, isoproterenol was given i.v. at half-log interval doses from 0.007 to 2.1 or 6.67 μg/Kg. The test compound, N-cyclohexyl-N-methyl-4-(2-oxo-3-methylene-1,2,3,5-tetrahydroimidazo-[2,1- b]quinazolin-7-yl)oxybutanamide, was then administered intravenously at dose levels from 0.1 to 1.0 mg/Kg.

C=c1c(=O)[nH]c2n1Cc1cc(OCCCC(=O)N(C)C3CCCCC3)ccc1N=2 [N-cyclohexyl-N-methyl-4-(2-oxo-3-methylene-1,2,3,5-tetrahydroimidazo[2,1-b]quinazolin-7-yl)oxybutanamide]
IC50 [1]: 2.7 nM | IC50 (human platelets): 150 nM | Peak Effects as % of Max. Isoproterenol, Blood Pressure (Mongrel dogs; 0.1 mg/kg): 42 % of Max. Isoproterenol | Peak Effects as % of Max. Isoproterenol, Heart Rate (Mongrel dogs; 0.1 mg/kg): 18 % of Max. Isoproterenol | Peak Effects as % of Max. Isoproterenol, Rt. Ventricular Contractile Force (Mongrel dogs; 0.1 mg/kg): 24 % of Max. Isoproterenol | Peak Effects as % of Max. Isoproterenol, Blood Pressure (Mongrel dogs; 0.316 mg/kg): 58 % of Max. Isoproterenol | Peak Effects as % of Max. Isoproterenol, Heart Rate (Mongrel dogs; 0.316 mg/kg): 28 % of Max. Isoproterenol | Peak Effects as % of Max. Isoproterenol, Rt. Ventricular Contractile Force (Mongrel dogs; 0.316 mg/kg): 52 % of Max. Isoproterenol | Peak Effects as % of Max. Isoproterenol, Blood Pressure (Mongrel dogs; 1.0 mg/kg): 65 % of Max. Isoproterenol | Peak Effects as % of Max. Isoproterenol, Heart Rate (Mongrel dogs; 1.0 mg/kg): 34 % of Max. Isoproterenol | Peak Effects as % of Max. Isoproterenol, Rt. Ventricular Contractile Force (Mongrel dogs; 1.0 mg/kg): 62 % of Max. Isoproterenol

Source: patent publication US4670434A, “(2-oxo-3-methylene-1,2,3,5-tetrahydroimidazo[2,1-b]q uinazolinyl)oxyalkylamides useful as cyclic AMP phosphodiesterase inhibitors” (Syntex (U.S.A.) Inc., priority 1985, dated 1987)
